From a compilation of properties of binary mixtures (doi:10.1016/j.molliq.2017.05.115)

Experiment: xn = mol fraction of the nth substance listed
Conditions: 101 kPa

## CC[n+]1ccn(C)c1.COS(=O)(=O)[O-] + CCCCCCCO
298.15 K, x1 = 0.0836
  speed of sound: 1330.6 m/s
298.15 K, x1 = 0.1703
  speed of sound: 1341.3 m/s
298.15 K, x1 = 0.2602
  speed of sound: 1357.7 m/s
298.15 K, x1 = 0.3537
  speed of sound: 1380.4 m/s
298.15 K, x1 = 0.4508
  speed of sound: 1410.5 m/s
298.15 K, x1 = 0.657
  speed of sound: 1499.2 m/s
298.15 K, x1 = 0.8808
  speed of sound: 1646.1 m/s
303.15 K, x1 = 0.0836
  speed of sound: 1319.6 m/s
303.15 K, x1 = 0.1703
  speed of sound: 1330.5 m/s
303.15 K, x1 = 0.2602
  speed of sound: 1346.9 m/s
303.15 K, x1 = 0.3537
  speed of sound: 1369.7 m/s
303.15 K, x1 = 0.4508
  speed of sound: 1399.9 m/s
303.15 K, x1 = 0.5518
  speed of sound: 1438.8 m/s
303.15 K, x1 = 0.657
  speed of sound: 1488.8 m/s
303.15 K, x1 = 0.8808
  speed of sound: 1636.2 m/s
308.15 K, x1 = 0.0836
  speed of sound: 1299.7 m/s
308.15 K, x1 = 0.1703
  speed of sound: 1310.5 m/s
308.15 K, x1 = 0.2602
  speed of sound: 1327 m/s
308.15 K, x1 = 0.4508
  speed of sound: 1380.2 m/s
308.15 K, x1 = 0.5518
  speed of sound: 1419.4 m/s
308.15 K, x1 = 0.657
  speed of sound: 1469.8 m/s
308.15 K, x1 = 0.7665
  speed of sound: 1534.7 m/s
308.15 K, x1 = 0.8808
  speed of sound: 1619.5 m/s
